# Tested on: panel of 55 breast cancer cell lines
# Assay: Cell growth inhibition assay (Cell Titer Glo, 72 h, 9 doses; GI50, TGI, LC50)
# Assay type: cell-based, human
# Conditions: for GI50: value is the negative log10 of mol/L
smiles,measurement,setting,value
COc1ccc(C2=N[C@@H](c3ccc(Cl)cc3)[C@@H](c3ccc(Cl)cc3)N2C(=O)N2CCNC(=O)C2)c(OC(C)C)c1 [Nutlin 3a],GI50,cell line 600MPE,4.32
same,GI50,"cell line AU565, censored GI50 values",4.79
same,GI50,cell line AU565,4.79
same,GI50,"cell line BT20, censored GI50 values",4.47
same,GI50,cell line BT20,4.47
same,GI50,"cell line BT474, censored GI50 values",4.39
same,GI50,cell line BT474,4.39
same,GI50,"cell line BT483, censored GI50 values",5.19
same,GI50,cell line BT483,5.19
same,GI50,cell line BT549,4.35
same,GI50,cell line CAMA1,4.30
same,GI50,"cell line HCC38, censored GI50 values",4.66
same,GI50,cell line HCC38,4.66
same,GI50,"cell line HCC70, censored GI50 values",4.73
same,GI50,cell line HCC70,4.73
same,GI50,"cell line HCC202, censored GI50 values",5.02
same,GI50,cell line HCC202,5.02
same,GI50,"cell line HCC1143, censored GI50 values",4.67
same,GI50,cell line HCC1143,4.67
same,GI50,"cell line HCC1187, censored GI50 values",4.68
same,GI50,cell line HCC1187,4.68
same,GI50,"cell line HCC1395, censored GI50 values",4.65
same,GI50,cell line HCC1395,4.65
same,GI50,"cell line HCC1419, censored GI50 values",4.39
same,GI50,cell line HCC1419,4.39
same,GI50,"cell line HCC1428, censored GI50 values",4.50
same,GI50,cell line HCC1428,4.50
same,GI50,"cell line HCC1500, censored GI50 values",4.57
same,GI50,cell line HCC1500,4.57
same,GI50,cell line HCC1806,4.29
same,GI50,"cell line HCC1937, censored GI50 values",4.63
same,GI50,cell line HCC1937,4.63
same,GI50,"cell line HCC1954, censored GI50 values",4.76
same,GI50,cell line HCC1954,4.76
same,GI50,"cell line HCC2185, censored GI50 values",4.81
same,GI50,cell line HCC2185,4.81
same,GI50,"cell line HCC3153, censored GI50 values",4.44
same,GI50,cell line HCC3153,4.44
same,GI50,"cell line LY2, censored GI50 values",5.35
same,GI50,cell line LY2,5.35
same,GI50,"cell line MCF7, censored GI50 values",5.24
same,GI50,cell line MCF7,5.24
same,GI50,cell line MDAMB134V,4.76
same,GI50,"cell line MDAMB134VI, censored GI50 values",4.76
same,GI50,"cell line MDAMB157, censored GI50 values",4.45
same,GI50,cell line MDAMB157,4.45
same,GI50,cell line MDAMB175V,5.08
same,GI50,"cell line MDAMB175VII, censored GI50 values",5.08
same,GI50,cell line MDAMB231,4.18
same,GI50,cell line MDAMB361,4.23
same,GI50,"cell line MDAMB415, censored GI50 values",4.59
same,GI50,cell line MDAMB415,4.59
same,GI50,cell line MDAMB436,4.30
same,GI50,cell line MDAMB453,4.32
same,GI50,"cell line MDAMB468, censored GI50 values",4.44
same,GI50,cell line MDAMB468,4.44
same,GI50,cell line SKBR3,4.32
same,GI50,"cell line SUM52PE, censored GI50 values",4.73
same,GI50,cell line SUM52PE,4.73
same,GI50,"cell line SUM149PT, censored GI50 values",4.56
same,GI50,cell line SUM149PT,4.56
same,GI50,"cell line SUM159PT, censored GI50 values",4.78
same,GI50,cell line SUM159PT,4.78
same,GI50,"cell line SUM185PE, censored GI50 values",4.54
same,GI50,cell line SUM185PE,4.54
same,GI50,"cell line SUM225CWN, censored GI50 values",4.69
same,GI50,cell line SUM225CWN,4.69
same,GI50,"cell line SUM1315MO2, censored GI50 values",4.67
same,GI50,cell line SUM1315MO,4.67
same,GI50,"cell line T47D, censored GI50 values",4.51
same,GI50,cell line T47D,4.51
same,GI50,"cell line UACC812, censored GI50 values",4.45
same,GI50,cell line UACC812,4.45
same,GI50,"cell line UACC893, censored GI50 values",4.69
same,GI50,cell line UACC893,4.69
same,GI50,"cell line ZR75B, censored GI50 values",5.69
same,GI50,cell line ZR75B,5.69
same,GI50,"cell line ZR751, censored GI50 values",5.51
same,GI50,cell line ZR751,5.51
COc1cccc(-c2cc(=O)c3ccccc3o2)c1N [PD 98059],GI50,"AU565 cell line, censored GI50 values",5.12
same,GI50,"CAMA1 cell line, censored GI50 values",4.65
same,GI50,"HCC1187 cell line, censored GI50 values",5.56
same,GI50,"HCC1937 cell line, censored GI50 values",4.50
same,GI50,cell line 600MPE,4.30
same,GI50,cell line AU565,5.12
same,GI50,cell line BT20,4.04
same,GI50,cell line BT474,4.00
same,GI50,cell line BT483,4.12
same,GI50,cell line CAMA1,4.65
same,GI50,cell line HCC70,4.30
same,GI50,cell line HCC1143,4.00
same,GI50,cell line HCC1187,5.56
same,GI50,cell line HCC1395,4.00
same,GI50,cell line HCC1419,4.20
same,GI50,cell line HCC1428,4.12
same,GI50,cell line HCC1806,4.30
same,GI50,cell line HCC1937,4.50
same,GI50,cell line HCC1954,4.30
same,GI50,cell line HCC2185,4.55
same,GI50,cell line MDAMB134V,4.12
same,GI50,cell line MDAMB175V,4.24
same,GI50,cell line MDAMB361,4.30
same,GI50,cell line MDAMB468,4.32
same,GI50,cell line SKBR3,4.73
same,GI50,cell line SUM52PE,4.92
same,GI50,cell line SUM149PT,4.44
same,GI50,cell line SUM159PT,4.30
same,GI50,cell line SUM185PE,4.88
same,GI50,cell line SUM225CWN,4.42
same,GI50,cell line SUM1315MO,4.30
same,GI50,cell line T47D,4.30
same,GI50,cell line UACC812,4.27
same,GI50,cell line ZR75B,4.00
same,GI50,cell line ZR751,4.32
O=C(Nc1cc(Cl)cc2c1[nH]c1cnccc12)c1cccnc1 [PS1145],variability in cell line response,across the cell line panel,variability in cell line response was minimal

# From patent US10770169B2, “Method of providing a treatment to a subject based on a dynamic pathway map” (THE REGENTS OF THE UNIVERSITY OF CALIFORNIA, priority 2010, dated 2020)
